In patent US5070207A, “Phospholipase A2 inhibitors” (American Home Products Corporation, priority 1990, dated 1991):
Like-named read-outs stand apart in the source and are kept apart here. Values belong to the compound of their own block, whether it stands above or below them.

Legend:
Human Platelet PLA2 = biological target: T1, Human Platelet PLA2 (Homo sapiens, UniProt P14555); assay: in vitro isolated phospholipase A2 assay, human platelet PLA2; type: biochemical; conditions: for inhibition at 10 µM: read-out: % Inhibition at 10 μM HP
T1 construct: a) Semipurified human platelet acid extract PLA2 (in 10 mM sodium; from tissue; host or cells: human platelets (acid extract, semipurified)
T1 sequence (P14555 21-144): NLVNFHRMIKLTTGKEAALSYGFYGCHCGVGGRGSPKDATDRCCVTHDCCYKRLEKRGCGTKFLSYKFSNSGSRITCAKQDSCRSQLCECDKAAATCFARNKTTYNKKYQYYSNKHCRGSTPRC
Method: (§1) The compounds of the invention are tested in an in vitro isolated phospholipase A2 assay to determine the ability of the test compounds to inhibit the release of arachidonic acid from an arachidonic acid-containing substrate by the action of phospholipase A2 enzyme from human and non-human sources.
(§2) Into a 15 mL polypropylene tube are added the following:
(§3) ^6 Two human PLA2 enzymes are used:
a) Semipurified human platelet acid extract PLA2 (in 10 mM sodium
acetate buffer, pH 4.5). Remove protein precipitate by centrifugation at
about 2200 rpm for 10 minutes.
(§4) Incubate the 100 μL reaction mixture for 10 minutes at 37° C. in a shaking water bath. The reaction is terminated by the addition of 2 mL tetrahydrofuran, followed by vortexing. NH2 columns (100 μg/mL-Analytichem International) are conditioned with 0.5 mL tetrahydrofuran followed by 0.5 mL tetrahydrofuran/water (2 mL:0.1 mL, v/v).
(§5) The sample is loaded onto the columns and slowly drawn through them. The hydrolyzed arachidonic acid retained in the columns is eluted therefrom with 1 mL tetrahydrofuran/glacial acetic acid (2%). The arachidonic acid is transferred to scintillation vials and quantitated by β-counting analysis. A "total counts" sample is prepared by pipetting 25 μL ^3 H-arachidonate E. coli directly into a scintillation vial to which is added 1 mL tetrahydrofuran. 10 mL aquasol (scintillation cocktail) is added to all samples.

Human Synovial PLA2 = biological target: T2, Human Synovial PLA2 (Homo sapiens, UniProt P14555); assay: in vitro isolated phospholipase A2 assay, human synovial fluid PLA2; type: biochemical; conditions: for inhibition at 10 µM: read-out: % Inhibition at 10 μM HSF
T2 construct: b) Purified human synovial fluid; from tissue; host or cells: human synovial fluid (purified)
T2 sequence (P14555 21-144): T1 sequence (P14555 21-144)
Method: as §1, §2, §3
b) Purified human synovial fluid.
as §4, §5

[1] = system: LTC4 (lipoxygenase pathway); assay: in vivo murine zymosan peritonitis assay, LTC4; parameters: species or system mouse (male CD-1); conditions: for ED50: Mus musculus, po, standard drugs
Method: (§6) The compounds of the invention are evaluated for their ability to inhibit the lipoxygenase and/or cyclooxygenase pathways of arachidonic acid metabolism in the in vivo murine zymosan peritonitis assay.
(§7) Male CD-1 mice (8 weeks old) are placed in plastic boxes in groups of six. Animals are injected with 1 mL i.p. of either 1% zymosan in pyrogen free 0.9% saline or saline (unstimulated control). Compounds are dosed orally 1 hour prior to zymosan injection. Twenty minutes after zymosan injection, the mice are asphyxiated by CO2 inhalation and the peritoneal cavity is lavaged with 2 mL ice cold Hanks Balanced Salt Solution (HBSS) without CaCl2, MgSO4 . 7H2 O and MgCl2 . 6H2 O. Peritoneal lavage fluid from each mouse is removed by syringe and placed in 5 mL plastic test tubes put on ice and volume is noted. Preparation of samples for evaluation by ELISA is as follows: Samples are centrifuged at 800 xg for 15 minutes; 1 mL of the supernatant is added to 8 mL ice cold methanol and kept at -70° C. overnight to precipitate protein; and samples are then centrifuged at 800 xg for 15 minutes, followed by a drying procedure in a Savant speed vac concentrator. The samples are reconstituted with 1 mL ice cold ELISA buffer and stored at -70° C. until assayed. The assay for eicosanoids (LTC4 and 6-keto-PGF1α) is performed according to conventional ELISA procedures.
(§8) Compounds to be tested orally are suspended in 0.5% Tween 80. Compounds to be tested intraperitoneally are suspended in 0.5% methylcellulose in 0.9% saline.
(§9) The total metabolite level in lavage fluid/mouse is calculated and the significance is determined by a one-way analysis of variance with LSD comparisons to control (p≤0.05). Drug effects are expressed as a percent change from control values.

[2] = system: 6-keto-PGF1α /TxB2 (cyclooxygenase pathway); assay: in vivo murine zymosan peritonitis assay, 6-keto-PGF1α /TxB2; parameters: species or system mouse (male CD-1); conditions: for ED50: Mus musculus, po, read-out: ED50 6-keto-PGF1α /TxB2
Method: as §6, §7, §8, §9

[3] = system: T×B2 synthesis by rat glycogen-elicited polymorphonuclear leukocytes (PMN); assay: inhibition of synthesis of the cyclooxygenase product TxB2 by rat polymorphonuclear leukocytes; type: cell-based; conditions: Leukocyte
Method: The exudate is centrifuged at 400 xg for 10 minutes. The supernatant fluid is discarded and the cell pellet is resuspended to a concentration of 2.0×10^7 cells/mL in HBSS containing Ca^++ and Mg^++ and 10 μM L-cysteine. […] The reaction is terminated by centrifugation and pelleting cells. Supernatants are then analyzed by HPLC analysis on a 15 cm×4.6 mm ID supelcosil LC-18 (Supelco)(3M) column, using a two solvent system at a flow rate of 1.4 mL total flow as follows: […] In this assay, the procedure of Example 14 is carried out as described. […] The results are calculated as in Example 14 and presented below: […]

[4] = system: LTB4 synthesis by rat glycogen-elicited polymorphonuclear leukocytes (PMN); assay: inhibition of LTB4 synthesis by rat glycogen-elicited polymorphonuclear leukocytes; type: cell-based; conditions: Leukocyte
Method: Roy. Soc. Med., 74, 831 (1981)]. […] Accordingly, the specificity of action of PLA2 inhibitors can be determined by the activity of test compounds in this assay, which measures the ability of compounds to inhibit the synthesis of LTB4 by rat glycogen-elicited polymorphonuclear leukocytes (PMN) in the presence of exogenous substrate. […] The exudate is centrifuged at 400 xg for 10 minutes. The supernatant fluid is discarded and the cell pellet is resuspended to a concentration of 2.0×10^7 cells/mL in HBSS containing Ca^++ and Mg^++ and 10 μM L-cysteine. […] The reaction is terminated by centrifugation and pelleting cells. Supernatants are then analyzed by HPLC analysis on a 15 cm×4.6 mm ID supelcosil LC-18 (Supelco)(3M) column, using a two solvent system at a flow rate of 1.4 mL total flow as follows: Solvent A: 70:30 17.4 mM H3 PO4 :CH3 CN Solvent B. CH3 CN Gradient: (system is equilibrated with Solvent A) Percent solvent changes are accomplished in a linear fashion. […] 10^4 -2.0×10^4 dpm of eicosanoids of interest are injected in 90 μL EtOH cocktail. […] Results are expressed as percent inhibition at a given compound dose or as an IC50 value.

[5] = human synovial fluid, read-out: IC50 HSF

SMILES: CCCCC/C=C\C/C=C\C/C=C\C/C=C\CCCC(=O)O [Arachidonic Acid, reference compound]
IC50 (Human Platelet PLA2): 8600 nM
IC50 (Human Synovial PLA2): 3200 nM

SMILES: NC1=NN(c2cccc(C(F)(F)F)c2)CC1 [BW755C]
ED50 [1]: < 10 mg/kg

SMILES: O=C(C#CCCCOc1ccc(Cl)cc1)C(F)(F)F [Example 1, 7-(4-Chlorophenoxy)-1,1,1-trifluoro-3-heptyn-2-one]
inhibition at 50 µM (Human Platelet PLA2; at 50 μM, human platelet, read-out: % Inhibition HP): 54%
% Inhibition 6-keto-PGF ([2]; 100 mg/kg p.o.): 15%
IC50 (Human Synovial PLA2; [5]): 490 nM
% Inhibition LTC4 ([1]; 100 mg/kg p.o.): 32%
inhibition at 10 µM [3]: 24%
inhibition at 10 µM [4]: 89.8%

SMILES: O=C(C#CCCCn1c2ccccc2c2ccccc21)C(F)(F)F [Example 2, 7-(9H-Carbazol-9-yl)-1,1,1-trifluoro-3-heptyn-2-one]
inhibition at 10 µM (Human Platelet PLA2; human platelet): 7.2%
IC50 (Human Synovial PLA2; [5]): 43 nM

SMILES: O=C(C#CCCCOc1ccc(F)cc1)C(F)(F)F [Example 3, 1,1,1-Trifluoro-7-(4-fluorophenoxy)-3-heptyn-2-one]
IC50 (Human Synovial PLA2; [5]): 8900 nM

SMILES: CC(C)(C)c1ccc(OCCCC#CC(=O)C(F)(F)F)cc1 [Example 4, 7-[4-(1,1-Dimethylethyl)phenoxy]-1,1,1-trifluoro-3-heptyn-2-one]
IC50 (Human Synovial PLA2; [5]): 200 nM

inhibition at 10 µM (Human Synovial PLA2; human synovial fluid): 38.7%
SMILES: COc1ccc(OCCCC#CC(=O)C(F)(F)F)cc1 [Example 5, 1,1,1-Trifluoro-7-(4-methoxyphenoxy)-3-heptyn-2-one]

inhibition at 10 µM (Human Synovial PLA2; human synovial fluid): 84.8%
SMILES: O=C(C#CCCCN1c2cccc3cccc(c23)S1(=O)=O)C(F)(F)F [Example 6, 1,1,1-Trifluoro-7-(2H-naphth[1,8-cd]isothiazol-2-yl)-3-heptyn-2-one S,S-dioxide]

SMILES: O=C(C#CCCCOc1ccc(Cl)cc1)C(F)(F)CCc1ccccc1 [Example 7, 9-(4-Chlorophenoxy)-3,3-difluoro-1-phenyl-5-nonyn-4-one]
IC50 (Human Synovial PLA2; [5]): 900 nM
inhibition at 10 µM [3]: 40%
inhibition at 10 µM [4]: 72%

inhibition at 10 µM (Human Synovial PLA2; human synovial fluid): 90.5%
SMILES: O=C(C#CCCCOc1cccc(C(F)(F)F)c1)C(F)(F)F [Example 8, 1,1,1-Trifluoro-7-[3-(trifluoromethyl)phenoxy]-3-heptyn-2-one]

inhibition at 10 µM (Human Synovial PLA2; human synovial fluid): 19.8%
SMILES: CC(C)(C#CC(=O)C(F)(F)F)CCOc1ccc(Cl)cc1 [Example 9, 7-(4-Chlorophenoxy)-5,5-dimethyl-1,1,1-trifluoro-3-heptyne-2-one]

inhibition at 10 µM (Human Synovial PLA2; human synovial fluid): 94.2%
SMILES: O=C(C#CCCCCOc1ccc(Cl)cc1)C(F)(F)F [Example 10, 8-(4-Chlorophenoxy)-1,1,1-trifluoro-3-octyn-2-one]

inhibition at 10 µM (Human Platelet PLA2; human platelet): 26.5%
inhibition at 10 µM (Human Synovial PLA2; human synovial fluid): 94.6%
SMILES: O=C(C#CCCCOc1ccc(Cl)c2ccccc12)C(F)(F)F [Example 11, 7-[(4-Chloro-1-naphthalenyl)oxy]-1,1,1-trifluoro-3-heptyn-2-one]

inhibition at 10 µM (Human Synovial PLA2; human synovial fluid): 58.8%
SMILES: CC(C)(C#CC(=O)C(F)(F)F)Oc1ccc(OC(F)(F)F)cc1 [Example 12, 1,1,1-Trifluoro-5-methyl-5-[4-(trifluoromethoxy)phenoxy]-3-hexyn-2-one]

SMILES: CC(C)Cc1ccc(C(C)C(=O)O)cc1 (stereo not drawn) [Ibuprofen]
ED50 ([2]; standard drugs): 7 mg/kg

SMILES: COc1ccc2c(c1)c(CC(=O)O)c(C)n2C(=O)c1ccc(Cl)cc1 [Indomethacin]
ED50 [2]: 0.126 mg/kg

SMILES: CC(=CCCC1=CCC(C2=CC(=O)OC2O)OC1O)CCC1=C(C)CCCC1(C)C (stereo not drawn) [Monoalide, reference compound]
IC50 (Human Platelet PLA2): 25200 nM
IC50 (Human Synovial PLA2): 140 nM

SMILES: O=C1CCN(c2ccccc2)N1 [Phenidone]
ED50 ([2]; standard drugs): < 30 mg/kg
ED50 [1]: 24 mg/kg
